We go through nine compounds from patent US20230009145A1, “INHIBITION OF TMEM16A BY BENZBROMARONE OR NICLOSAMIDE FOR TREATING POLYCYSTIC KIDNEY DISEASE AND/OR POLYCYSTIC LIVER DISEASE” (UNIVERSITÄT REGENSBURG, priority 2019, published 2023).

In assay [1] the test system is M1 collecting duct cells. Nature of the assay: Ki-67 proliferation staining in M1 organoids/cysts. It is filed as cell-based, mouse. As to conditions: M1 organoids, shPKD1/shPKD2, 5 μM inhibitor. The protocol: M1 cells grown under confluent conditions for 4 days on glass coverslips and M1 organoids grown for 6 days were fixed for 10 min with methanol at −20° C. Organoids were isolated with ice cold 5 mM EDTA in PBS and seeded in poly-L-lysine coated coverslips. After seeded, cells were fixed for 10 min with methanol at −20° C. After washing, the cells were permeabilized with 0.5% (v/v, PBS) Triton X-100 for 10 min and blocked with 1% (w/v, PBS) bovine serum albumin for 1 h at room temperature. The cells were incubated overnight with primary antibodies (moo) against rabbit anti-TMEM16A (Davids Biotechnologie, Regensburg, Germany), or rat anti-Ki-67 (DAKO, M7249, Germany) or mouse anti-acetylated tubulin (T7451, Sigma-Aldrich, Germany). Binding of the primary antibody was visualized by incubation with appropriate secondary antibodies conjugated with Alexa Fluor 488 or Alexa Fluor 546 (1:300, Molecular Probes, Invitrogen). Nuclei were stained with Hoe33342 ([…] PBS, AppliChem, Darmstadt, Germany). Glass coverslips were mounted on glass slides with fluorescent mounting medium (DakoCytomation, Hamburg, Germany) and examined with an ApoTome Axiovert 200M fluorescence microscope (Zeiss, Germany).

For assay [2], the system named is M1 collecting duct cells. Nature of the assay: M1 renal organoid / cyst model (organoid/cyst volume in matrigel). The conditions noted are these: for increase in cyst volume upon knockdown of PKD1/PKD2: M1 organoids, shPKD1/shPKD2, 5 μM inhibitor. It is filed as cell-based, mouse. The protocol:
M1 cells were resuspended as a single-cell suspension in 50/50% Matrigel/type I collagen and transferred into 24-well plates (30×10^3 cells/well, four wells per condition) for 9 days. Medium was changed every 3 days. Every 3 days thirty random visual fields per well were photographed with an Axiovert 200 microscope (Zeiss, Germany). Cyst area of the lumina (˜30-150 cysts per condition and single experimental procedure) were measured with AxioVision (Zeiss, Germany). Cyst volume was then estimated using the formula for the volume of a sphere, 4/3πr^3.

In assay [3] the test system is mouse primary renal epithelial and M1 collecting duct cells. Nature of the assay: Measurement of [Ca2+]i (Fura-2). The conditions noted are these: for enhanced Ca2+ entry (SOCE) / enhanced CPA-induced store release: PKD1/PKD2 knockout cells; for enhanced Ca2+ entry (SOCE): 5 μM; for enhanced CPA-induced store release: CPA 10 μM, inhibitor 5 μM. It is filed as cell-based. The protocol:
Primary cilium and membrane Ca^2+ signals were detected after MDCK M2 and C7 cell were transfected with 5HT6-mCherry-GECO1.0 (5HT6-GECO, Addgene, Cambridge, Mass., USA). Cells were grown to confluence in glass coverslips and serum starved for 4-6 days to induce cilium formation. Afterwards, the cells were mounted and perfused in Ringer's solution. The mCherry fluorescence of the indicator was used to localize the Ca^2+ sensor. Therefore, before each experiment, a photo was taken exciting the 5HT6-GECO at 560 nm, and the emission was recorded between 620±30 nm using a CCD-camera (CoolSnap HQ, Visitron Systems, Germany). To measure the ciliary Ca^2+ changes, 5HT6-GECO was excited at 485/405 nm, and the emission was recorded between 535±12.5 nm. The results for [Ca^2+ ]cilium and [Ca^2+]cyt were obtained at 485/405 nm changes and given in ratio. Measurement of the global cytosolic Ca^2+ changes were performed as described recently. In brief, cells were loaded with 5 μM Fura-2, AM (Molecular Probes) in OptiMEM (Invitogen) with 0.02% pluronic (Molecular Probes) for 1 h at RT and 30 min at 37° C. Fura-2 was excited at 340/380 nm, and the emission was recorded between 470 and 550 nm using a CCD-camera (CoolSnap HQ, Visitron Systems, Germany). Control of experiment, imaging acquisition, and data analysis were done with the software package Meta-Fluor (Universal imaging, USA). [Ca2+]i was calculated from the 340/380 nm fluorescence ratio after background subtraction. The formula used to calculate [Ca^2+]i was [Ca^2+]i=Kd×(R−Rmin)/(Rmax−R)×(Sf2/Sb2), where R is the observed fluorescence ratio. The values Rmax and Rmin (maximum and minimum ratios) and the constant Sf2/Sb2 (fluorescence of free and Ca^2+-bound Fura-2 at 380 nm) were calculated using 1 μmol/liter ionomycin (Calbiochem), 5 μmol/liter nigericin, 10 μmol/liter monensin (Sigma), and 5 mmol/liter EGTA to equilibrate intracellular and extracellular Ca^2+ in intact Fura-2-loaded cells. The dissociation constant for the Fura-2·Ca^2+ complex was taken as 224 nmol/liter. ER Ca^2+ signals were detected in Ca^2+ sensor ER-LAR-GECO1 (Addgene, Cambridge, Mass., USA) expressing M1 cells. Cells were excited at 560 nm and emission was recorded between 620±30 nm.

Assay [4] relates to PKD1-/- mice (ADPKD). Nature of the assay: Ki-67 cell proliferation in kidneys of PKD1-/- mice. As to conditions: kidneys of PKD1-/- mice treated with benzbromarone. It counts as in vivo, mouse. The source says:
Cell proliferation was examined in kidneys of control animals (PKD+/+) and PKD1−/− animals using the proliferation marker Ki-67.

The target in assay [5] is T1, TMEM16A (Homo sapiens, UniProt Q5XXA6).
T1 sequence (Q5XXA6 1-986): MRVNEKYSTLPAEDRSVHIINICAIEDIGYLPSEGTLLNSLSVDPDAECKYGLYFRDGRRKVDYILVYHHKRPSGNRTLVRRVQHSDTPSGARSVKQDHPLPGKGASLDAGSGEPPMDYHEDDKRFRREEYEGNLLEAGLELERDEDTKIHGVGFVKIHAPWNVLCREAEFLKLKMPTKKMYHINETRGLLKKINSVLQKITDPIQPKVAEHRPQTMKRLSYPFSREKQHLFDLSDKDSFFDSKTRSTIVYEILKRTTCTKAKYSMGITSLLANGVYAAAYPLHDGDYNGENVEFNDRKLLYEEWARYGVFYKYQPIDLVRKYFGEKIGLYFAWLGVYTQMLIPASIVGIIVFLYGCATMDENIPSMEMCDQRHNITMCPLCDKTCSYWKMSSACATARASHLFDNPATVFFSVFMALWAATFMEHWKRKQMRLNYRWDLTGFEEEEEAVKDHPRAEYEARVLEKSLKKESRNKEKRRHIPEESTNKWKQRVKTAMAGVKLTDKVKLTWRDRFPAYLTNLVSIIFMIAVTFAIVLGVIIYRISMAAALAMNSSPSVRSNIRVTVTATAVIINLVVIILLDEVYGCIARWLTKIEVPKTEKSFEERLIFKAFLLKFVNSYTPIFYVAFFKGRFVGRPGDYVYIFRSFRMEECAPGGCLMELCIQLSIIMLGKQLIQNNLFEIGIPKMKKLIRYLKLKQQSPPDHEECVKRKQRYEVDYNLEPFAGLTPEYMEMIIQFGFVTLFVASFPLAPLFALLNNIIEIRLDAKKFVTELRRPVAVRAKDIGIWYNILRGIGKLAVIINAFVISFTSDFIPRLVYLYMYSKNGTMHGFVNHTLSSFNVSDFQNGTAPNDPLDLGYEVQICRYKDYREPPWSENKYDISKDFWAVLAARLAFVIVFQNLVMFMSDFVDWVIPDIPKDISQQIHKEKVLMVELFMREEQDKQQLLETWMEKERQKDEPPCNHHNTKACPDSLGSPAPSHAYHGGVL
The conditions noted are these: references [1, 2]; cited from earlier work.

The test system of assay [6] is PKD1-/- mice (ADPKD). Put plainly: Inhibition of cyst growth in vivo in PKD1-/- mice. The conditions noted are these: 1 μg/kg/day I.P. for 30 days. Set-up: species or system mouse. The protocol: Inducible and tubule-specific PKD1 knockout (PKD1−/−) leads to ADPKD and polycystic kidney disease. Wt mice and mice with a knockout in the gene PKD1 were treated with benzbromarone (1 μg/kg/day intraperitoneal (I.P.) benzbromarone (BBR)) for 30 days starting 4 weeks after induction of the PKD1 knockout at postnatal (PN) 20-22.

Assay [7] has as its system Polycystin-1-deficient collecting duct (plMDCK) cells. Nature of the assay: plMDCK cyst growth in collagen I matrix. It is filed as cell-based, dog. The conditions noted are these: 10 μM forskolin, 5 days; for mean cyst volumes: 0.1 μM or 1 μM, vs control. The protocol:
Polycystin-1-deficient collecting duct ([…]) cells were resuspended within a collagen I matrix where they spontaneously form cysts and grow in a secretion-dependent manner in the presence of 10 μM forskolin for 5 days. Medium was supplemented with either 0.1 μM or 1 μM niclosamide or 0.1 μM or 1 μM nitazoxanide. Thereafter, cyst volumes were analyzed. […] The effect of niclosamide and derivatives thereof, e.g. nitazoxanide, on cyst growth was analyzed. Particularly, it was analyzed whether there is a dose-dependent effect on cyst growth. Polycystin-1-deficient collecting duct (p1MDCK) cells were resuspended in a collagen I matrix to form cysts in vitro and were cultured in the presence of […] forskolin for 5 days. The cells were treated with either 0.1 μM or 1 μM niclosamide, or with 0.1 μM or 1 μM of an exemplary niclosamide derivative, namely nitazoxanide.

Entries after “also recorded” stand apart in the source; their conditions may differ.

Consider `CC(C)(C)C1CCc2c(sc(NC(=O)c3ccco3)c2C(=O)O)C1` (stereo not shown) [CaCCinhAO1], for which the “increase in proliferation (Ki-67) upon knockdown of PKD1/PKD2” value was “blocked increase in volume and proliferation” in assay [1]; “inhibition” in assay [1] (listed as CaCCinhA01). The results for the “increase in cyst volume upon knockdown of PKD1/PKD2” value in assay [2] and in assay [2] (listed as CaCCinhA01) were “blocked increase in volume” and “inhibition”, respectively.

In the case of `COc1ccc(CCCOC(Cn2ccnc2)c2ccc(OC)cc2)cc1` (stereo not shown) [SK&F96365], in assay [3], the “enhanced Ca2+ entry (SOCE)” value is reported as “inhibited enhanced Ca^2+ entry” and the “enhanced CPA-induced store release” value was “abolished enhanced CPA-induced store release”.

With `Cc1nnsc1C(=O)Nc1ccc(-n2nc(C(F)(F)F)cc2C(F)(F)F)cc1` [YM58483], in assay [3], the “enhanced Ca2+ entry (SOCE)” value is on record as “inhibited enhanced Ca^2+ entry” and the “enhanced CPA-induced store release” value is on record as “abolished enhanced CPA-induced store release”.

In the case of `N=C(N)NC(=O)c1nc(Cl)c(N)nc1N` [amiloride], in assay [2] (M1 renal organoids, data not shown), the “M1 organoid volume when grown in amiloride” value was “increase their volume”.

For `CCc1oc2ccccc2c1C(=O)c1cc(Br)c(O)c(Br)c1` [benzbromarone], the “increase in proliferation (Ki-67) upon knockdown of PKD1/PKD2” value in assay [1] is “inhibition”; in assay [1] (listed as Benzbromarone), “blocked increase in volume and proliferation”. Also, in assay [4], the “pathologic cell proliferation (Ki-67)” value is reported as “inhibition of pathologic cell proliferation; also recorded: largely abolished pathologic proliferation”. Also, the “increase in cyst volume upon knockdown of PKD1/PKD2” value is “inhibition” in assay [2] and “blocked increase in volume” in assay [2] (listed as Benzbromarone). Further, the “inhibition of TMEM16A” value in assay [5] is reported as “potently inhibit”. Further, the results for the “cyst development / cyst growth” value in assay [6] and in assay [6] (listed as Benzbromarone) were “remarkable delay in cyst development” and “significantly inhibits cyst growth”, respectively.

Turning to `CCCCNc1cc(C(=O)O)cc(S(N)(=O)=O)c1Oc1ccccc1` [bumetanide], the “formation of the M1 renal organoid” value in assay [2] (M1 organoids without knockdown, bumetanide 100 μM continuously in matrigel) is on record as “did not interfere with the formation of the organoid”. For the same compound, in assay [2] (shPKD1/shPKD2 M1 cells, bumetanide 100 μM, 9 days), the “increase in organoid volume upon knockdown of PKD1 or PKD2” value is given as “inhibited”.

As to `Cn1c(=O)c2c(ncn2C)n(C)c1=O` [caffeine], the “intracellular Ca2+” value in assay [3] (mouse wt and PKD1-/- primary renal epithelial and M1 collecting duct cells) was “did not increase intracellular Ca^2+”.

With `O=C(Nc1ccc([N+](=O)[O-])cc1Cl)c1cc(Cl)ccc1O` [niclosamide, 5-Chlor-N-(2-chlor-4-nitrophenyl)-2-hydroxybenzamid], the “inhibition of TMEM16A” value in assay [5] is reported as “potent inhibitor”. Also, in assay [7], the mean cyst volumes result is given as “inhibit cyst growth in a dose-dependent manner; also recorded: significantly decreased” and the “reduction in cyst volumes, 1 μM compared to 0.1 μM” value is reported as “higher reduction in cyst volumes”.

On to `CC(=O)Oc1ccccc1C(=O)Nc1ncc([N+](=O)[O-])s1` [nitazoxanide], for which, in assay [7], the mean cyst volumes result is reported as “inhibit cyst growth in a dose-dependent manner; also recorded: significantly decreased” and the “reduction in cyst volumes, 1 μM compared to 0.1 μM” value is on record as “higher reduction in cyst volumes”.
